Measurements published in paper PMC9184693, “Molecular mechanism of interaction between fatty acid delta 6 desaturase and acyl-CoA by computational prediction” (AMB Express, 2022).

Molecular target: T1, MpFADS6 (Micromonas pusilla delta 6 desaturase) (Micromonas pusilla, UniProt C1MMV2)
T1 construct: gene MICPUCDRAFT_32578; pYES2-MpFADS6 expressed in Saccharomyces cerevisiae INVSc1; membrane protein, whole-cell biotransformation
Test: whole-cell biotransformation in yeast, GC-MS of fatty acid methyl esters
Format: cell-based
Conditions: product from 0.25 mM ALA fed to cells; formed as the acyl-CoA

T1 sequence (C1MMV2 entry or part of it): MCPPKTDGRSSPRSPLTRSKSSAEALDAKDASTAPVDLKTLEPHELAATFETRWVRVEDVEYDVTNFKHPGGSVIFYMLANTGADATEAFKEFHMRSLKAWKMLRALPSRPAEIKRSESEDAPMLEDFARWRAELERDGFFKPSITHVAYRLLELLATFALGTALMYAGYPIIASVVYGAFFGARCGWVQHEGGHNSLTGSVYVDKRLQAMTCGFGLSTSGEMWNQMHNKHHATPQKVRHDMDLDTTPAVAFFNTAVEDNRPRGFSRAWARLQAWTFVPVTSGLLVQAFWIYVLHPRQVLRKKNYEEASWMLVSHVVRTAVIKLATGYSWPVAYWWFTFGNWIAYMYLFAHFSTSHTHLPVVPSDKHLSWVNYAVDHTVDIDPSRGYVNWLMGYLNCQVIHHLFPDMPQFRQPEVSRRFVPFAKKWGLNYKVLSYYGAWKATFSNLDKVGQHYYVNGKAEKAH

Compound: CC/C=C\C/C=C\C/C=C\C/C=C\CCCCC(=O)O [stearidonic acid]
- whole-cell biotransformation in yeast, GC-MS of fatty acid methyl esters: Desaturase activity is represented by the conversion rate of ALA to SDA
